Patent US20240269139A1, “COMPOUNDS FOR TARGETED PROTEIN DEGRADATION OF KINASES” (DANA-FARBER CANCER INSTITUTE, INC., priority 2020, published 2024)
Where two headings read alike, the source gives them in different places.

How the values were obtained:
Type in all cases: cell-based
[1] = molecular target: T1, protein kinases (human kinome) (Homo sapiens, UniProt P52789); conditions: HK2 (P52789); experiment wp076
T1 sequence (P52789 1-917): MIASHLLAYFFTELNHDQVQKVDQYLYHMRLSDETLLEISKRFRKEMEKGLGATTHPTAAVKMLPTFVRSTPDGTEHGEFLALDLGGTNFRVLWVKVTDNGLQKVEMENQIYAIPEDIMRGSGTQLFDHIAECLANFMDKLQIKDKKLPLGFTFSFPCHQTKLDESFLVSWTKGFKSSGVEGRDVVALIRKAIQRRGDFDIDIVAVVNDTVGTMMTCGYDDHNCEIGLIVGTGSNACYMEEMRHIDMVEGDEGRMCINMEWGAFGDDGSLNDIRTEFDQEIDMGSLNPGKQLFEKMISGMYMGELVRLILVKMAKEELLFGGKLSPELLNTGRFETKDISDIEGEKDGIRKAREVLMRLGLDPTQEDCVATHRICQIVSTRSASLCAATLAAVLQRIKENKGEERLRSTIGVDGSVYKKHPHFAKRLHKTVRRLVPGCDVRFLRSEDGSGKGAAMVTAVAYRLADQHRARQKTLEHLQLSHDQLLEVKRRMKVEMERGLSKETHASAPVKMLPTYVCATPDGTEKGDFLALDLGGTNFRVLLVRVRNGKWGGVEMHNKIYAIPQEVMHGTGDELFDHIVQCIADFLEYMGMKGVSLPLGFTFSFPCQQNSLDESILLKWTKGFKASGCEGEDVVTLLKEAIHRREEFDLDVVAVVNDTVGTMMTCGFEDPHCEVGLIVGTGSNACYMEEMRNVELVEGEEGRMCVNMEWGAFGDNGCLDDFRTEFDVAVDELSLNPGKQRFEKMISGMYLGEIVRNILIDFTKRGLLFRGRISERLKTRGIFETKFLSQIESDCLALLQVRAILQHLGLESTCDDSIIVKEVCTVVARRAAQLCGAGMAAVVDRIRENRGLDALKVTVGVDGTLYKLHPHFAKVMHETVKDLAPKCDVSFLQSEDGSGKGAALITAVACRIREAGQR

[2] = molecular target: protein kinases (human kinome) (Homo sapiens, UniProt Q00536)
[3] = molecular target: protein kinases (human kinome) (Homo sapiens, UniProt P53350)
[4] = molecular target: protein kinases (human kinome) (Homo sapiens, UniProt O75676); conditions: for logFC: RPS6KA4 (O75676)
[5] = molecular target: protein kinases (human kinome) (Homo sapiens, UniProt P21127)
[6] = molecular target: protein kinases (human kinome) (Homo sapiens, UniProt O43353); conditions: for logFC: RIPK2 (O43353-1)
[7] = molecular target: protein kinases (human kinome) (Homo sapiens, UniProt Q8N165); conditions: for logFC of PDIK1L (Q8N165): Experiment wp168; for logFC: PDIK1L (Q8N165), experiment wp168
[8] = PLK1 P53350, experiment wp133, 1 hr
[9] = PLK1 P53350, experiment wp133, 2 hr
[10] = PLK1 P53350, experiment wp133, 4 hr
[11] = CDK11B P21127-1, experiment wp045
[12] = CDK11B P21127-1, experiment wp105
[13] = CDK11B P21127-1, experiment wp117
[14] = CDK11B P21127-1, experiment wp160, 4 hr
[15] = CDK11B P21127-1, experiment wp160, 8 hr
[16] = CDK11B P21127-1, experiment wp172
[17] = CDK11B P21127-1, experiment wp168

Chain of protein kinases (human kinome) (Homo sapiens, UniProt Q00536) (Q00536 whole entry): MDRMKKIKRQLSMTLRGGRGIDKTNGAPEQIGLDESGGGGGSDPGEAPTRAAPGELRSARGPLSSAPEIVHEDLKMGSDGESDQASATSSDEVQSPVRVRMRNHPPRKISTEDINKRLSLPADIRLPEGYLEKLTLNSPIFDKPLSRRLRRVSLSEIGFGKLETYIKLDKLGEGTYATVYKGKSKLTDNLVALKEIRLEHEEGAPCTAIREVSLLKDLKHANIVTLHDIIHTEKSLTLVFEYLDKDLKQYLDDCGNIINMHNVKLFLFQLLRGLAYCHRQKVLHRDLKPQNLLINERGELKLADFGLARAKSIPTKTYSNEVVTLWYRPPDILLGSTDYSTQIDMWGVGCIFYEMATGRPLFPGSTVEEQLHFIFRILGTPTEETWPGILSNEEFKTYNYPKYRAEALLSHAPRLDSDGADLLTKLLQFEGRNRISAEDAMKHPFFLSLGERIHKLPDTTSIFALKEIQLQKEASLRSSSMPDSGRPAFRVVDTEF
Chain of protein kinases (human kinome) (Homo sapiens, UniProt O43353) (O43353 whole entry): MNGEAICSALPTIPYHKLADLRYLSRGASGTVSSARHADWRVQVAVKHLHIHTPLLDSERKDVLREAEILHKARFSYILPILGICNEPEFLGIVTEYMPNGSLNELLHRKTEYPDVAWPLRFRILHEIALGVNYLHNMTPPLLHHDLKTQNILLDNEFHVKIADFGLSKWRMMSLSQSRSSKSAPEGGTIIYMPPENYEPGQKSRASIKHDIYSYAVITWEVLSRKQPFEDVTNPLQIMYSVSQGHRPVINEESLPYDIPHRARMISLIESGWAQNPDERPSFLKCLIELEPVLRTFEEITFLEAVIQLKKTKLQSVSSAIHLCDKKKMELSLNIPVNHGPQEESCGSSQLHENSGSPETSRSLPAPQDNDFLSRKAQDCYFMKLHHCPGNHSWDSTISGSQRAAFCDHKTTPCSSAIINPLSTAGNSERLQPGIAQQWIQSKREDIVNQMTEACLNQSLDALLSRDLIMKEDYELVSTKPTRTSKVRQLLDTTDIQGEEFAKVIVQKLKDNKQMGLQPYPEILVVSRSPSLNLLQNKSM
Chain of protein kinases (human kinome) (Homo sapiens, UniProt O75676) (O75676 whole entry): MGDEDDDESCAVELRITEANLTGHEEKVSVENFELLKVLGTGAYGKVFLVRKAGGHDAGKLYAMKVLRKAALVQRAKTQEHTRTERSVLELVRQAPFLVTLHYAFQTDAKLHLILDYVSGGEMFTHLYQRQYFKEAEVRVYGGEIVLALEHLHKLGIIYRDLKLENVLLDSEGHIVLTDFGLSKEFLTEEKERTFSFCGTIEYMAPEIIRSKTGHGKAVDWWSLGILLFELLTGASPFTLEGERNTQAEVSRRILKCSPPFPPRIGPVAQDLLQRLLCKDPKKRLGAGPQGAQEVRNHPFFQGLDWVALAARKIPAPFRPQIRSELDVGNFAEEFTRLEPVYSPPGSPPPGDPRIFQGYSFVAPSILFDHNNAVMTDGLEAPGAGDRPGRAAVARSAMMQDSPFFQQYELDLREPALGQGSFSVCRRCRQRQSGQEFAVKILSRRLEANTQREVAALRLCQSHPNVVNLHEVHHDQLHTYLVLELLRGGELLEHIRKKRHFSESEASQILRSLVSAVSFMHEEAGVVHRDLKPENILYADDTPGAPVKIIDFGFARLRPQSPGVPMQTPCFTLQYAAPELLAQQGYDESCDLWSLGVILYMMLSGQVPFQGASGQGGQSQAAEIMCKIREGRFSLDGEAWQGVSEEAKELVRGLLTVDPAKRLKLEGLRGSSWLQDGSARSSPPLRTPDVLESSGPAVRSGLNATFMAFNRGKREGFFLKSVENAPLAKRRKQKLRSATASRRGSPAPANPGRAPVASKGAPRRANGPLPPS
Chain of protein kinases (human kinome) (Homo sapiens, UniProt P21127) (P21127 whole entry): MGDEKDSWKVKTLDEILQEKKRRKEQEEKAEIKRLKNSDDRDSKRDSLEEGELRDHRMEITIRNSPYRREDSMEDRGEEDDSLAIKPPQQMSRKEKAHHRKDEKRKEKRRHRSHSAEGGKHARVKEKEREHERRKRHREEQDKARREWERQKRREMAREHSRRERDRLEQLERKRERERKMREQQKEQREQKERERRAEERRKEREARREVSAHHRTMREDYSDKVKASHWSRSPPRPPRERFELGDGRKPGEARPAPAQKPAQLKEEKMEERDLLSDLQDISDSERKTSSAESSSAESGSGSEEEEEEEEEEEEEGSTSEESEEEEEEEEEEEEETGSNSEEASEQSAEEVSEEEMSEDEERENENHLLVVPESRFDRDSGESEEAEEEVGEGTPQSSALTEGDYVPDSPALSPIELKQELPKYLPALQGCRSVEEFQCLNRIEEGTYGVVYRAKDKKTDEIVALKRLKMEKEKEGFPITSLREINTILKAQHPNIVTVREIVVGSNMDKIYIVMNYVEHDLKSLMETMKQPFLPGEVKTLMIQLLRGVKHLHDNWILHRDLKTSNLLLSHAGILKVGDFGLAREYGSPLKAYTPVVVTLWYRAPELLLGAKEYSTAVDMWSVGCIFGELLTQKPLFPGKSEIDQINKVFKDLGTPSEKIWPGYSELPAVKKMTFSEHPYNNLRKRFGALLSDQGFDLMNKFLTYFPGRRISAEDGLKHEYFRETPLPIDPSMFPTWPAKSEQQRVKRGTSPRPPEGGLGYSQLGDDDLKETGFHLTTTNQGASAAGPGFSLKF
Chain of protein kinases (human kinome) (Homo sapiens, UniProt Q8N165) (Q8N165 whole entry): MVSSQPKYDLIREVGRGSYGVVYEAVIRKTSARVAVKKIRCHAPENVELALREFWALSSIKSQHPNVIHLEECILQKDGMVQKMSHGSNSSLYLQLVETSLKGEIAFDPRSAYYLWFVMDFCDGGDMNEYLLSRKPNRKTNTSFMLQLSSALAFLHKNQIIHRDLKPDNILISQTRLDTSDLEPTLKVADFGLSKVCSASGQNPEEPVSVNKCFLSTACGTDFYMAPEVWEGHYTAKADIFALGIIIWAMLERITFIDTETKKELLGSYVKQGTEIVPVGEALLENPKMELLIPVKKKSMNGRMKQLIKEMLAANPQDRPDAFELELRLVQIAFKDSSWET
Chain of protein kinases (human kinome) (Homo sapiens, UniProt P53350) (P53350 whole entry): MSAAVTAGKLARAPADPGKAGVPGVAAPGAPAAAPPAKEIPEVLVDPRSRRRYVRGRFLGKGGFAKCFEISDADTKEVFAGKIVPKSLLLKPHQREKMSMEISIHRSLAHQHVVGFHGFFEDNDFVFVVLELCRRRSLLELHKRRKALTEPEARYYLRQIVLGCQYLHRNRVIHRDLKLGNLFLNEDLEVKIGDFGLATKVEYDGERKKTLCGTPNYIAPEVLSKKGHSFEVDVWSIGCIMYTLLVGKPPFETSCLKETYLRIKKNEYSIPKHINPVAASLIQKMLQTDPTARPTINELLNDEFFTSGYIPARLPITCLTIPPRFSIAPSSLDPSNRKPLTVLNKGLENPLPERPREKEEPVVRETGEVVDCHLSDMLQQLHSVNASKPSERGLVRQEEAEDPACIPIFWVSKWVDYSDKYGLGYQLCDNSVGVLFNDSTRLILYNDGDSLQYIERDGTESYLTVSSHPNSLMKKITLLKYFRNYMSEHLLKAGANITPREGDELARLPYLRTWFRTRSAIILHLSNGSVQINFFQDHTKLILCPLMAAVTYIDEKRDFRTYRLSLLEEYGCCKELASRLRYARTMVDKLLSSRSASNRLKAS

CNC(=O)c1ccccc1Nc1cc(Nc2ccc(N3CCN(CCOCCOCCNC(=O)CNc4cccc5c4C(=O)N(C4CCC(=O)NC4=O)C5=O)CC3)cc2OC)ncc1C(F)(F)F (centres unmarked) [MFH.5.103.1]
logFC [1]: −0.3819

CC(C)S(=O)(=O)c1ccccc1Nc1nc(Nc2ccc(N3CCN(CCOCCNC(=O)CNc4cccc5c4C(=O)N(C4CCC(=O)NC4=O)C5=O)CC3)cc2)ncc1Cl (centres unmarked) [SK.3.91]
logFC CDK16 (Q00536-1) ([2]; Experiment wp172): −0.8169 | logFC of CDK16 (Q00536-1) ([2]; Experiment wp172): −0.8169 | logFC [3, 8]: −0.5591 | logFC PLK1 [3, 8]: −0.5591 | logFC [3, 9]: −0.5804 | logFC PLK1 [3, 9]: −0.5804 | logFC [3, 10]: −0.7482 | logFC PLK1 [3, 10]: −0.7482

Cc1cc(Nc2ncc(Br)c(Nc3cccc(F)c3C(N)=O)n2)ccc1S(=O)(=O)NCCOCCOCCOCCOCCNc1cccc2c1C(=O)N(C1CCC(=O)NC1=O)C2=O (centres unmarked) [TMX.02.174]
logFC ([4]; experiment wp146): −1.5 | logFC of RPS6KA4 (O75676) ([4]; experiment wp146): −1.5

Cc1ccc(NC(=O)c2cccc(C(F)(F)F)c2)cc1N1Cc2cnc(Nc3ccc(N4CCN(Cc5cn(CCCCCOc6cccc7c6C(=O)N(C6CCC(=O)NC6=O)C7=O)nn5)CC4)nc3)nc2N(C)C1=O (centres unmarked) [DB0646, N-(3-(7-((6-(4-((1-(5-((2-(2,6-Dioxopiperidin-3-yl)-1,3-dioxoisoindolin-4-yl)oxy)pentyl)-1H-1,2,3-triazol-4-yl)methyl)piperazin-1-v)pyridin-3-yl)amino)-1-methyl-2-oxo-1,4-dihydropyrimido[4,5-d]pyrimidin-3(2H)-yl)-4-methylphenyl)-3-(trifluoromethyl)benzamide]
logFC [5, 11]: −0.4555 | logFC CDK11B [5, 11]: −0.4555 | logFC [5, 12]: −0.3542 | logFC CDK11B [5, 12]: −0.3542 | logFC [5, 13]: −0.4695 | logFC CDK11B [5, 13]: −0.4695 | logFC [5, 14]: −0.5122 | logFC CDK11B [5, 14]: −0.5122 | logFC [5, 15]: −0.644 | logFC CDK11B [5, 15]: −0.644 | logFC [5, 16]: −0.4624 | logFC CDK11B [5, 16]: −0.4624 | logFC ([5]; CDK11B P21127, experiment wp152): −0.5948 | logFC of CDK11B (P21127) ([5]; experiment wp152): −0.5948 | logFC of RIPK2 (O43353-1) ([6]; Experiment wp172): −0.4779 | logFC ([6]; experiment wp105): −0.4215 | logFC ([6]; experiment wp172): −0.4779 | logFC of RIPK2 (O43353-1) ([6]; experiment wp105): −0.4215 | logFC ([3]; PLK1 P53350, experiment wp152): −0.331 | logFC PLK1 ([3]; PLK1 P53350, experiment wp152): −0.331

CC(C)(C)c1nc(-c2cccc(NS(=O)(=O)c3c(F)cccc3F)c2F)c(-c2ccnc(NCCOCCNC(=O)CCOCCOCCNc3cccc4c3C(=O)N(C3CCC(=O)NC3=O)C4=O)n2)s1 (centres unmarked) [DD.03.106]
logFC PLK1 ([3]; PLK1 P53350, experiment wp147, 4 uM): −0.3533 | logFC ([3]; PLK (P53350), experiment wp147, 4 uM): −0.3533

Cc1cnc(Nc2ccc(N3CCN(CCCCCCC(=O)N[C@H](C(=O)N4C[C@H](O)C[C@H]4C(=O)N[C@@H](C)c4ccc(-c5scnc5C)cc4)C(C)(C)C)CC3)cc2)nc1Nc1cccc(S(=O)(=O)NC(C)(C)C)c1 [JWG.123]
logFC CDK16 (Q00536-1) ([2]; Experiment wp195): −0.5026 | logFC of CDK16 (Q00536-1) ([2]; Experiment wp195): −0.5026

Cc1ccc(NC(=O)c2cccc(C(F)(F)F)c2)cc1N1Cc2cnc(Nc3ccc(N4CCN(CCCCC(=O)N[C@H](C(=O)N5C[C@H](O)C[C@H]5C(=O)N[C@@H](C)c5ccc(-c6scnc6C)cc5)C(C)(C)C)CC4)nc3)nc2N(C)C1=O [DB1113]
logFC of PDIK1L (Q8N165) [7]: −0.5334 | logFC [7]: −0.5334 | logFC [5, 17]: −0.8736 | logFC CDK11B [5, 17]: −0.8736

CCc1cnn2c(N(Cc3ccc(N)nc3)C(=O)CCOCCOCCOCCNC(=O)CNc3cccc4c3C(=O)N(C3CCC(=O)NC3=O)C4=O)cc(N3CCCC[C@H]3CCO)nc12 (some centres unmarked) [MFH.5.115.2]
logFC ([3]; PLK1 P53350, experiment wp076): −0.56 | logFC PLK1 ([3]; PLK1 P53350, experiment wp076): −0.56

Cc1ccc(NC(=O)c2cccc(C(F)(F)F)c2)cc1N1Cc2cnc(Nc3ccc(N4CCN(CCCOc5cccc6c5C(=O)N(C5CCC(=O)NC5=O)C6=O)CC4)nc3)nc2N(C)C1=O (centres unmarked) [DB0662]
logFC of PDIK1L (Q8N165) [7]: −0.3272 | logFC [7]: −0.3272 | logFC [5, 17]: −0.5946 | logFC CDK11B [5, 17]: −0.5946

Cc1ncsc1-c1ccc([C@H](C)NC(=O)[C@@H]2C[C@@H](O)CN2C(=O)[C@@H](NC(=O)CCOCCOCCN2CCN(c3ccc(Nc4ncc(Cl)c(Nc5ccccc5S(=O)(=O)C(C)C)n4)cc3)CC2)C(C)(C)C)cc1 [FMF.06.098.1]
logFC of RPSGKA4 (O75676) ([4]; Experiment wp108): −0.4196 | logFC ([4]; experiment wp108): −0.4196 | logFC ([4]; experiment wp131): −0.5351 | logFC of RPS6KA4 (O75676) ([4]; experiment wp131): −0.5351

Cc1ccc(C(=O)Nc2ccc(CN3CCN(CCCOCCOCCOCCNC(=O)COc4cccc5c4C(=O)N(C4CCC(=O)NC4=O)C5=O)CC3)c(C(F)(F)F)c2)cc1C#Cc1cnc2cccnn12 (centres unmarked) [SB1.G.187]
logFC of RIPK2 (O43353-1) ([6]; Experiment wp114): −0.8828 | logFC ([6]; experiment wp105): −0.572 | logFC ([6]; experiment wp114): −0.8828 | logFC of RIPK2 (O43353-1) ([6]; experiment wp105): −0.572

O=C1CCC(N2C(=O)c3cccc(NCCCCCCCCN4CCC(NC(=O)c5[nH]ncc5NC(=O)c5c(Cl)cccc5Cl)CC4)c3C2=O)C(=O)N1 (centres unmarked) [MFH.5.126.1]
logFC [1]: −0.322 | logFC ([3]; PLK1 P53350, experiment wp076): −1.071 | logFC PLK1 ([3]; PLK1 P53350, experiment wp076): −1.071
